From patent US6369109B1, “Betulinic acid and derivatives thereof useful for the treatment of neuroectodermal tumor” (Deutsches Krebsforschungszentrum Stiftung des Offentlichen …, priority 1998, dated 2002)
“Also recorded” adds a separate entry of the source.

Assays:
IMR-5 cells = assay: Specific apoptosis induction by betulinic acid derivatives; format: cell-based; settings: FIG. 17B
Protocol: (§1) Quantification of DNA fragmentation was performed by FACS analysis of propidium iodide stained nuclei as described in Nicoletti et al, 1991, J. Immunol. Methods. 139: 271-279. Cells were analyzed for DNA content by flow. cytometry (FACScan, Becton Dickinson, Heidelberg, Germany) using CELLQuest software. Early apoptotic changes were identified by staining with biotinylated annexin V (Bender Med Systems, Vienna, Austria) following the manufacturer's instructions. Annexin V binds to exposed phosphatidylserine on the surface of apoptotic cells. Koopman et al, 1994, Blood. 84:1415-1420. Cells were analyzed by flow cytometry (FAC-Scan. Becton Dickinson) using CELLQuest software.
(§2) More specifically, betulinic acid, 28-acetyl-3-β-D-glucosyl betulin (“B10”), 3-β-28-hydroxylup-20(29)-en-3-yl-β-D-glucopyranoside (“B11”), 3-β-3-hydroxylup-20(29)-en-28-yl-β-D-glucopyranoside (“B12”), and 3-(β-D-glucopyranosyloxy)lup-20(29)-en-28-oic acid (“B13”) have been tested for specific apoptosis induction using the assays shown in Example 2. See, supra. […] (FIG. 17B).

Kelly cells = assay: as above; format: cell-based; settings: FIG. 17C
Protocol: as §1, §2

[1] = test system: caspase-3, caspase-8 and PARP in cytosolic extracts from SHEP cells; assay: Cleavage of caspases in cytosolic extracts by cytochrome c or AIF; format: biochemical, human; settings: FIG. 11A
Protocol: For determination of nuclear fragmentation, nuclei (10^3/μl) were incubated with mitochondria (1 μg/μl) in buffer D (10 mM HEPES, pH 7.4, 50 mM NaCl, 2 mM MgCl2, 5 mM EGTA, 1 mM DDT, 2 mM ATP, 10 mM phosphocreatine, 50 μg/ml creatine kinase, 10 μM cytochalasin B) for 2 h at 37° C. Nuclei were stained with propidium iodide ([…]) and analyzed by flow cytometry. For determination of caspase activation, cytosolic extracts (2 μg/μl) were incubated with mitochondria (1 μg/μl), cytochrome c (0.1-100 μM) or AIF-containing mitochondrial supernatant (0.5 μg/μl) in buffer D for 2 h at 37° C. Partially purified AIF (cytochrome c-free) was prepared as previously described (0.5 mg/ml, Susin et al., 1997, J. Exp. Med. 186, 5-37; Susin et al., 1996, J. Exp. Med. 184, 1331-41). Proteins were separated by 15% SDS-PAGE and Western blot analysis was performed as described above. To confirm equal loading of mitochondrial protein, all Western blots were also developed with an antibody directed against a 60 kDa mitochondrial antigen (data not shown).
Cytosolic extracts from SHEP cells were incubated with 0.1-100 μM cytochrome c. Immunodetection of caspases-3, -8 and PARP was performed as described in FIG. 9A.
Cytosolic extracts from SHEP cells transfected with a neomycin resistance vector only (Nec) or bcl-2 were incubated with partially purified AIF. Immunodetection of caspases-3, -8 and PARP was performed as described for FIG. 9A.
For determination of nuclear fragmentation, nuclei (10^3/μl) were incubated with mitochondria (1 μg/μl) in buffer D (10 mM HEPES, pH 7.4, 50 mM NaCl, 2 mM MgCl2, 5 mM EGTA, 1 mM DDT, 2 mM ATP, 10 mM phosphocreatine, 50 μg/ml creatine kinase, 10 μM cytochalasin B) for 2 h at 37° C. Nuclei were stained with propidium iodide ([…]) and analyzed by flow cytometry (Susin et al., 1997 Exp. Cell Res. 236:397-403). For determination of caspase activation, cytosolic extracts (2 μg/μl) were incubated with mitochondria (1 μg/μl), cytochrome c (10 μM) or AIF-containing mitochondrial supernatant (0.5 μg/μl) in buffer D for 2 h at 37° C. […]

[2] = test system: melanoma cell line (MEL-2); settings: previously reported; cited from earlier work
[3] = 0.1-100 μM (Ex. 3) or 10 μM (Ex. 4) cytochrome c, partially purified AIF or AIF-containing supernatant, 11B, 16B

Compound | apoptotic activity compared to betulinic acid (IMR-5 cells) | apoptotic activity compared to betulinic acid (Kelly cells) | further results
C=C(C)[C@@H]1CC[C@]2(CO)CC[C@]3(C)[C@H](CC[C@@H]4[C@@]5(C)CC[C@H](O[C@@H]6O[C@H](CO)[C@@H](O)[C@H](O)[C@H]6O)C(C)(C)[C@@H]5CC[C@]43C)[C@@H]12 [B11, 3-β-28-hydroxylup-20(29)-en-3-yl-β-D-glucopyranoside] | about the same activity as betulinic acid | at least as high as betulinic acid | 
cytochrome c |  |  | cleavage of caspase-3 in cytosolic extracts [1, 3]: triggered the proteolytic processing of caspase-3 to its active subunits; also recorded: resulted in the processing of caspase-3 and PARP; cleavage of caspase-8 in cytosolic extracts [1, 3]: did not induce caspase-8 cleavage; also recorded: did not induce caspase-8 activation; cleavage of PARP in cytosolic extracts ([1]; 0.1-100 μM cytochrome c): caused caspase-mediated cleavage of PARP
C=C(C)C1CCC2(C(=O)O)CCC3(C)C(CCC4C5(C)CCC(OC6OC(CO)C(O)C(O)C6O)C(C)(C)C5CCC43C)C12 [B13, 3-(β-D-glucopyranosyloxy)lup-20(29)-en-28-oic acid] | enhanced apoptotic activity | at least as high as betulinic acid | 
C=C(C)C1CCC2(COC(C)=O)CCC3(C)C(CCC4C5(C)CCC(OC6OC(CO)C(O)C(O)C6O)C(C)(C)C5CCC43C)C12 [B10, 3β-28-(acetyloxy)lup-20(29)-en-3-yl-β-D-glucopyranoside] | enhanced apoptotic activity | at least as high as betulinic acid | 
C=C(C)[C@@H]1CC[C@]2(C(=O)O)CC[C@]3(C)[C@H](CC[C@@H]4[C@@]5(C)CC[C@H](O)C(C)(C)[C@@H]5CC[C@]43C)[C@@H]12 [betulinic acid, 3β-3-hydroxylup-20(29)-en-28-oic acid] |  |  | cytotoxicity [2]: exert cytotoxicity
C=C(C)C1CCC2(COC3OC(CO)C(O)C(O)C3O)CCC3(C)C(CCC4C5(C)CCC(O)C(C)(C)C5CCC43C)C12 [B12, 3-β-3-hydroxylup-20(29)-en-28-yl-β-D-glucopyranoside] | enhanced apoptotic activity | at least as high as betulinic acid | 
